Assay results reported in article PMC13021292, “Safety, tolerability and pharmacokinetics of DNDI‐6148, a novel agent for leishmaniasis: A randomized, controlled, single ascending dose study in healthy participants” (British Journal of Clinical Pharmacology, 2025).
Read-outs that look alike come from different tables or passages of the source.

Columns and labels:
[1] = Plasma pharmacokinetics, first-in-human single ascending oral dose study
Method: (§2) This was a FIH, phase I, double‐blind, parallel, single ascending dose (SAD) study of DNDI‐6148 arginine monohydrate, administered as an oral suspension to healthy male participants. Cohorts 1–8 each included eight participants and were administered 10, 20, 40, 80, 160, 220, 300 or 380 mg (free form) of DNDI‐6148 (in six participants) or placebo (two participants).
(§3) At the clinical site, a suspension was prepared extemporaneously by the pharmacist within 24 h prior to administration to participants (the timepoint for which stability data of the suspension were available). The IP powder was suspended in 30 mL ORA‐Sweet® (Paddock Laboratories, LLC, Minneapolis, USA) for taste and colour masking. Participants were administered between 4 and 25 mL of the suspensions, followed by the ingestion of 250 mL tap water. Opaque precision syringes were used to administer the solutions to minimize the risk of unblinding. To preclude any dietary effects on the PK of DNDI‐6148, participants fasted for 9 h before they received the IP or placebo. Treatments were administered under the supervision of the investigator at approximately 8 a.m. on Day 1.
(§4) Blood samples (6 mL per time point) for pharmacokinetic analyses were collected on Day 1 pre‐dose and at the following post‐dose time points: 0.5,1, 1.5 (cohorts 1–4 only), 2, 2.5, 3, 4, 5 (cohorts 5–8 only), 6, 9, 12, 24, 48 and 72 h. […] Within 30 min of blood collection, blood samples were centrifuged at 1500g for 10 min at 4 °C and 500 μL of plasma were transferred into pre‐labelled polypropylene tubes prefilled with phosphoric acid 2% (1:1, v:v). Tubes were capped immediately for each time point, and the plasma was frozen in an upright position at −80 °C for storage.
(§5) Concentrations of DNDI‐6148 were determined in acidified plasma and acidified urine/BSA mixture using a validated internally standardized liquid chromatography–tandem mass spectrometry (LC–MS/MS) assay with deuterated d4‐DNDI‐6148 as an internal standard. The lower limit of quantitation (LOQ) for DNDI‐6148 was 1 ng/mL in plasma and 10 ng/mL in urine.
(§6) Values that were below the LOQ before the first concentration equal or above LOQ were set to zero. Other values below the LOQ were not used to calculate the PK parameters. The area under the plasma concentration‐time curve from time zero (pre‐dose) to the time of last quantifiable concentration (AUC0‐last) was calculated using the linear‐log trapezoidal rule. Elimination half‐life (t1/2) was calculated by the equation ln2/λz, after visual inspection of the plasma concentration‐time profiles (considering a minimum of 3 data points, including the last measurable data point and excluding Cmax).
(§7) PK parameters were derived from plasma concentration vs. time data using non‐compartmental analysis in Phoenix WinNonlin® 8.1 (Certara Inc., Princeton, NJ, USA). Plasma concentration vs. time data and PK parameters were listed and summarized by dose level, using descriptive statistics. Mean concentrations were calculated only if at least ⅔ of the individual concentrations were above the lower LOQ (LLOQ). […] Planned sampling times were used to summarize plasma concentration data; actual sampling times were used in the derivation of PK parameters.

L. donovani = settings: cited from earlier work
L. infantum [2] = settings: cited from earlier work
[3] = human, in vivo, po, 220 mg
Method: as §2, §3, §4, §5, §6, §7

[4] = set-up: method as in unpublished data; settings: non‐clinical studies ref unpublished data; cited from earlier work
[5] = cited from earlier work
[6] = Cardiac safety: ECG QTcF, QTcG, heart rate; assay type: in vivo, human
Method: (§1) Safety was assessed by monitoring AEs throughout the study. Other safety monitoring included 12‐lead ECG recordings, measurement of vital signs, physical and neurological examinations, haematology, blood biochemistry and urinalysis and, for the last four participants of the 160 mg cohort and onwards, CRP and TNFα.
Triplicate ECGs extracted from 24-hour Holter recordings at predefined time points aligned with the pharmacokinetic (PK) sampling were used for additional cardiac safety analyses. […] For the group correction, α was estimated as the slope of the linear relationship between ln(QT) and ln(RR), based on drug-free (placebo and pre-dose) data (Figure S1).

L. infantum [7] = settings: 25 mg/kg BID for five or ten days; cited from earlier work
[8] = pH 7.4; cited from earlier work
[9] = Plasma CRP and TNFα pre- and post-dose (exploratory inflammation markers); assay type: in vivo, human; set-up: CRP plasma concentration, Mean / TNFα plasma concentration, Mean: unit not given here; settings: for CRP change from pre-dose, Mean / CRP change from pre-dose, Median / CRP plasma concentration, Mean / CRP plasma concentration, Median / TNFα change from pre-dose, Mean / TNFα plasma concentration, Mean / TNFα plasma concentration, Median / TNFα change from pre-dose, Median: 6 h post-dose (D1-T6H)
Text: Recruitment was temporarily interrupted on 16 March 2020 due to confinement measures related to the COVID‐19 outbreak in France. The study resumed on 17 August 2020, allowing for the completion of recruitment for cohorts 2, 3 and 4. Additionally, four participants were included in cohort 5 before suspension of the investigational product (IP) administration on 30 January 2021 as a precaution to assess emerging unexpected data in a non‐clinical Fertility and Early Embryonic Development study. The protocol was further amended to include evaluation of plasma concentrations of C‐reactive protein (CRP) and of tumour necrosis factor alpha (TNFα) pre and post‐dose (6 h) as exploratory markers of possible inflammation. Subsequent cohorts were completed up to the 380 mg dose level (cohort 8) without further interruption of the study.
Exploratory endpoints included ECG parameters compared to baseline and placebo; the exploratory identification of DNDI‐6148 metabolites; and, for the last four participants of the 160 mg cohort and the 220 mg, 300 mg and 380 mg cohorts, the exploratory evaluation of plasma concentrations of CRP and TNFα pre‐ and post‐dose.
as §1

[10] = cited from earlier work; remark: listed apart in the source

Cc1c(C(=O)Nc2ccc3c(c2)B(O)OC3)nnn1-c1ccccn1 [DNDI‐6148]
Vd/F ([1]; 300 mg single oral dose, GM): 99.99 L | t1/2 ([1]; 300 mg single oral dose, GM): 22.91 h | tmax ([1]; 300 mg single oral dose, GM): 5.12 h | CL/F ([1]; 300 mg single oral dose, Mean): 3.28 L/h | Cmax ([1]; 300 mg single oral dose, Mean): 3073.5 ng/mL | Vd/F ([1]; 300 mg single oral dose, Mean): 104.45 L | t1/2 ([1]; 300 mg single oral dose, Mean): 23.39 h | tmax ([1]; 300 mg single oral dose, Mean): 5.00 h | CL/F ([1]; 380 mg single oral dose, GM): 2.22 L/h | Cmax ([1]; 380 mg single oral dose, GM): 3487.2 ng/mL | Vd/F ([1]; 380 mg single oral dose, GM): 79.44 L | t1/2 ([1]; 380 mg single oral dose, GM): 24.76 h | tmax ([1]; 380 mg single oral dose, GM): 5.28 h | CL/F ([1]; 380 mg single oral dose, Mean): 2.26 L/h | Cmax ([1]; 380 mg single oral dose, Mean): 3606 ng/mL | Vd/F ([1]; 380 mg single oral dose, Mean): 79.82 L | t1/2 ([1]; 380 mg single oral dose, Mean): 25.46 h | tmax ([1]; 380 mg single oral dose, Mean): 5.50 h | GM half‐life in plasma ([1]; 10 and 20 mg doses): around 13 h | median tmax, generally ([1]; all dose levels): 4 to 6 h | GM half‐life in plasma ([1]; higher doses): around 20 h | in vitro activity against L. donovani (L. donovani): in the micromolar range | in vitro activity against L. infantum (L. infantum [2]): in the micromolar range | CL/F [3]: 2.55 L/h | blood–brain barrier crossing [4]: cross the blood–brain barrier | unbound fraction in plasma ([5]; humans): 6.6% | plasma protein binding (bound) ([5]; species not stated): over 93% | largest mean ΔΔQTcG ([6]; 160 mg, 12 h post-dose): 7.24 ms | mean ΔΔQTcG ([6]; 380 mg, 9 h post-dose): 1.83 ms | QTcG changes from baseline ([6]; all doses): ≤ 30 ms | QTcG values ([6]; all doses): ≤ 450 ms | QTcF value >500 msec or change from baseline QTcF >60 msec ([6]; any participant): No QTcF value >500 msec or change from baseline QTcF >60 msec was recorded | upper limit of the 90% CI of ΔΔQTcF ([6]; any single dose, concentration‐response modelling): ≤ 10 ms | maximum effect on ΔΔQTcF, estimated ([6]; dose of 380 mg, concentration‐response modelling): 1.65 (90% CI: −0.635, 3.94) msec | efficacy by oral route in L. infantum hamster model of VL (L. infantum [7]): demonstrated efficacy | logD [8]: 1.92 | CRP change from pre-dose, Mean ([9]; 160 mg, n 3): -0.03 | CRP change from pre-dose, Median ([9]; 160 mg, n 3): 0.00 | CRP plasma concentration, Mean ([9]; 160 mg, n 3): 0.80 | CRP plasma concentration, Median ([9]; 160 mg, n 3): 0.60 | TNFα change from pre-dose, Mean ([9]; 160 mg, n 3): 0.15 | TNFα plasma concentration, Mean ([9]; 160 mg, n 3): 2.55 | TNFα plasma concentration, Median ([9]; 160 mg, n 3): 2.58 | CRP change from pre-dose, Mean ([9]; 220 mg, n 6): -0.03 | CRP change from pre-dose, Median ([9]; 220 mg, n 6): 0.00 | CRP plasma concentration, Mean ([9]; 220 mg, n 6): 0.72 | CRP plasma concentration, Median ([9]; 220 mg, n 6): 0.60 | TNFα change from pre-dose, Mean ([9]; 220 mg, n 6): -19.68 | TNFα change from pre-dose, Median ([9]; 220 mg, n 6): -15.26 | TNFα plasma concentration, Mean ([9]; 220 mg, n 6): 1.77 | TNFα plasma concentration, Median ([9]; 220 mg, n 6): 1.74 | CRP change from pre-dose, Mean ([9]; 300 mg, n 6): -0.13 | CRP change from pre-dose, Median ([9]; 300 mg, n 6): -0.15 | CRP plasma concentration, Mean ([9]; 300 mg, n 6): 2.47 | CRP plasma concentration, Median ([9]; 300 mg, n 6): 1.15 | TNFα change from pre-dose, Mean ([9]; 300 mg, n 6): -0.37 | TNFα change from pre-dose, Median ([9]; 300 mg, n 6): 0.18 | TNFα plasma concentration, Mean ([9]; 300 mg, n 6): 2.67 | TNFα plasma concentration, Median ([9]; 300 mg, n 6): 2.62 | TNFα change from pre-dose, Mean ([9]; 380 mg, n 4): 0.33 | TNFα change from pre-dose, Median ([9]; 380 mg, n 4): 0.32 | TNFα plasma concentration, Mean ([9]; 380 mg, n 4): 2.82 | TNFα plasma concentration, Median ([9]; 380 mg, n 4): 2.75 | CRP change from pre-dose, Mean ([9]; 380 mg, n 6): -0.02 | CRP change from pre-dose, Median ([9]; 380 mg, n 6): 0.00 | CRP plasma concentration, Mean ([9]; 380 mg, n 6): 0.87 | CRP plasma concentration, Median ([9]; 380 mg, n 6): 0.60 | plasma CRP and TNFα concentrations post‐dose compared with pre‐dose ([9]; last four participants of 160 mg cohort and 220–380 mg cohorts): not significantly increased | CLint in human liver microsomes [10]: below 0.3 μL/min/mg
